According to patent US10160771B2, “Hepatitis C virus inhibitors and uses thereof in preparation of drugs” (priority 2014, dated 2018):

Tests used:
[1] = test system: HCV genotype 1b (HCV-1b) replicon cells; assay: HCV genotype 1b replicon luciferase assay (EC50); type: cell-based, hepatitis C virus genotype 1b (Con1 clone); settings: Hepatitis C virus, 72 h, 3 days, luciferase (Bright-Glo)
Protocol: (§1) The EC50 and CC50 values of anti-HCV compounds were determined by HCV genotype 1a (HCV-1a) and 1B (HCV-1b) stable transfer replication (replicon) cells. The source of genotype 1a replicon is H77 clones containing K1691R, K2040R and S2204I adaptive mutations. The source of genotype 1b replicon is Con1 clones containing E1202G, T1280I and K1846T adaptive mutations.
(§2) HCV 1a (HCV-1a) and 1b (HCV-1b) gene subtype replicon system contains the related HCV gene subtype non structural protein gene, G418 resistance gene NEO and luciferase gene, which results in that HCV related protein and luciferase can be stably expressed in cells. By detecting the level of expression of luciferase gene, the level of HCV replication can be determined. Therefore, the system is used as a model for screening the activity of anti-HCV compound in vitro.
(§3) HCV Replicon Cell Lines: HCV-1a and HCV-1b Cells
(§4) The compound powder was dissolved in 100% DMSO. Then the compound was diluted 5 times with 6 points, and added into the cell plate with Echo liquid handler. Ensure the final concentration of DMSO was 0.5%. Each compound was tested in double holes. Maximum initial concentration was 100, 10 or 1 nM, 5 times dilution, 6 points.
(§5) b) Cell Culture (HCV-1a or HCV-1b Replicon Cell):
(§6) 1) absorbing the culture supernatant of the cell culture and washing the cells with 10 mL PBS.
(§7) 2) adding preheated pancreatin to the washed cell culture flasks, rotating culture bottle to make the bottom of the culture bottle uniformly covered by pancreatin, then placed into 37° C., 5% CO2 incubator to digest.
(§8) 3) suspending cells in each T150 culture flask with 10-15 mL culture medium, absorbing 0.1 mL liquid and diluting 2 times by trypan blue solution as counted.
(§9) 4) diluting cells to 8×10^4/mL with the culture medium, adding the diluted cells into the compound-containing 96-well plate (Greiner, Cat.#655090) (100 μL/well, 8000 cells/well) with automatic liquid separator (Thermo Scientific). Then place into a 37° C., 5% CO2 incubator for 3 days. Cell control well: no compound, only containing 0.5% DMSO.
(§10) 6) then adding luciferase luminescence substrate Bright-Glo, after incubation for 5 minutes, detecting the luciferase activity by chemical luminescence detection system Envison (wavelength>700 nm); analyzing the anti-HCV inhibitory activity of the compounds according to luciferase data, which was used to calculate EC50 values.
(§11) The EC50 or CC50 values were obtained by nonlinear fitting analysis on inhibition percentage (inh %) data with GraphPad Prism software.

[2] = Cell Titer-fluor cell activity assay in HCV-1b replicon cells (CC50); type: cell-based
Protocol: as §1, §3, §4, §5, §6, §7, §8, §9
5) adding chemiluminescent substrate Cell Titer-fluor to the cell well, after incubation for 30 minutes, detecting the signal by chemiluminescence detection system Envison (Ex at 405 nm and read at 515 nm). The effect of the compounds on the activity of HCV replicon cells was analyzed according to the luminescence data, which was used to calculate the CC50 values.
as §11

[3] = test system: HCV genotype 1a (HCV-1a) replicon cells; assay: HCV genotype 1a replicon luciferase assay (EC50); type: cell-based, hepatitis C virus genotype 1a (H77 clone); settings: Hepatitis C virus, 72 h, 3 days, luciferase (Bright-Glo)
Protocol: as §1, §2, §3, §4, §5, §6, §7, §8, §9, §10, §11

Row | Compound | EC50 [1] | CC50 at 3 days [2] | EC50 [3]
1 | COC(=O)N[C@H](C(=O)N1CCC[C@H]1c1[nH]c(-c2ccc(-c3ccc4cc(-c5cnc(C6CCCC[C@@H]6C(=O)N(NC(=O)OC)C(C)C)[nH]5)ccc4c3)cc2)c2c1CCC2)C(C)C (some centres unmarked) [AA_094] | 10 to 100 nM | > 10 nM | 
2 | COC(=O)N[C@H](C(=O)N1CCC[C@H]1c1ncc(-c2ccc(-c3ccc(-c4cnc([C@@H]5[C@H]6CC[C@H](C6)[C@H]5C(=O)N[C@@H](C)c5nccs5)[nH]4)cc3)cc2)[nH]1)C(C)C [AA_279_ENDOA2_A] | 0.001 to 0.1 nM |  | 0.101 to 1 nM
3 | COC(=O)N[C@H](C(=O)N1CCC[C@H]1c1ncc(-c2ccc(-c3ccc(-c4cnc([C@@H]5[C@H]6CC[C@H](C6)[C@H]5C(=O)NC(C)c5cncnc5)[nH]4)cc3)cc2)[nH]1)C(C)C (some centres unmarked) [AA_292_ENDOA2_M] | 0.101 to 1 nM |  | 1 to 10 nM
4 | COC(=O)N[C@H](C(=O)N1CCC[C@H]1c1ncc(-c2ccc(-c3ccc(-c4cnc([C@@H]5[C@H]6CC[C@H](C6)[C@H]5C(=O)N(Cc5cccnc5)C(C)C)[nH]4)cc3)cc2)[nH]1)C(C)C [AA_285_ENDOA2] | 0.001 to 0.1 nM |  | 1 to 10 nM
5 | COC(=O)N[C@H](C(=O)N1CCC[C@H]1c1ncc(-c2ccc(-c3ccc(-c4cnc([C@@H]5[C@H]6CC[C@H](C6)[C@H]5C(=O)N[C@@H](C(=O)c5ccccc5)C(C)C)[nH]4)cc3)cc2)[nH]1)C(C)C [AA_293_ENDOA2] | 0.001 to 0.1 nM |  | 1 to 10 nM
6 | COC(=O)CNC(=O)C1(NC(=O)[C@@H]2C3CCC(C3)[C@H]2c2ncc(-c3ccc(-c4ccc(-c5cnc([C@@H]6CCCN6C(=O)[C@@H](NC(=O)OC)C(C)C)[nH]5)cc4)cc3)[nH]2)CCCCC1 (some centres unmarked) [AA_278] | 0.101 to 1 nM |  | 10 to 100 nM
7 | COC(=O)N[C@H](C(=O)N1CCC[C@H]1c1ncc(-c2ccc(-c3ccc(-c4cnc([C@@H]5[C@H]6CC[C@H](C6)[C@H]5C(=O)N[C@H](C)c5cccnc5F)[nH]4)cc3)cc2)[nH]1)C(C)C [AA_283_ENDOA2_A] | 0.001 to 0.1 nM |  | 1 to 10 nM
8 | COC(=O)N[C@H](C(=O)N1CCC[C@H]1c1ncc(-c2ccc(-c3ccc(-c4cnc([C@@H]5C6CCC(C6)[C@H]5C(=O)NCC(=O)NCC(F)F)[nH]4)cc3)cc2)[nH]1)C(C)C (some centres unmarked) [AA_277] | 0.001 to 0.1 nM |  | 0.101 to 1 nM
9 | COC(=O)N[C@H](C(=O)N1CCC[C@H]1c1ncc(-c2ccc(-c3ccc(-c4cnc([C@@H]5[C@H]6CC[C@H](C6)[C@H]5C(=O)NCc5ncc(C)[nH]5)[nH]4)cc3)cc2)[nH]1)C(C)C [AA_291_ENDOA2] | 0.001 to 0.1 nM |  | 1 to 10 nM
10 | COC(=O)N[C@H](C(=O)N1CCC[C@H]1c1ncc(-c2ccc(-c3ccc(-c4cnc([C@@H]5[C@H]6CC[C@H](C6)[C@H]5C(=O)N[C@H](C)c5nccs5)[nH]4)cc3)cc2)[nH]1)C(C)C [AA_279_ENDOA2_B] | 0.001 to 0.1 nM |  | 1 to 10 nM
11 | COC(=O)N[C@H](C(=O)N1CCC[C@H]1c1ncc(-c2ccc(-c3ccc(-c4cnc([C@@H]5[C@H]6CC[C@H](C6)[C@H]5C(=O)NN5CC[C@@H](C)C5=O)[nH]4)cc3)cc2)[nH]1)C(C)C [AA_295_ENDOA2_A] | 0.101 to 1 nM |  | 10 to 100 nM
12 | COC(=O)N[C@H](C(=O)N1CCC[C@H]1c1ncc(-c2ccc(-c3ccc(-c4cnc([C@@H]5[C@H]6CC[C@H](C6)[C@H]5C(=O)NCc5ccc(F)nc5)[nH]4)cc3)cc2)[nH]1)C(C)C [AA_214_ENDOA2] | 0.001 to 0.1 nM |  | 1 to 10 nM
13 | COC(=O)N[C@H](C(=O)N1CCC[C@H]1c1ncc(-c2ccc(-c3ccc(-c4cnc([C@@H]5[C@H]6CC[C@H](C6)[C@H]5C(=O)N[C@H](C(=O)OC)C(C)C)[nH]4)cc3)cc2)[nH]1)C(C)C [AA_282_ENDOA2] | 0.001 to 0.1 nM |  | 1 to 10 nM
14 | COC(=O)N[C@H](C(=O)N1CCC[C@H]1c1ncc(-c2ccc(-c3ccc(-c4cnc([C@@H]5[C@H]6CC[C@H](C6)[C@H]5C(N)=O)[nH]4)cc3)cc2)[nH]1)C(C)C [AA_284_ENDOA2] | 0.001 to 0.1 nM |  | 10 to 100 nM
15 | COC(=O)N[C@H](C(=O)N1CCC[C@H]1c1ncc(-c2ccc(-c3ccc(-c4ccc(C5CCCC5C(=O)NCc5cccnc5)[nH]4)cc3)cc2)[nH]1)[C@@H](C)OC (some centres unmarked) [AG_096] | 0.001 to 0.1 nM |  | 10 to 100 nM
16 | COC(=O)N[C@H](C(=O)N1CCC[C@H]1c1ncc(-c2ccc(-c3ccc(-c4cnc([C@@H]5C6CCC(C6)[C@H]5C(=O)N[C@@H](C(=O)NCC(F)F)C(C)C)[nH]4)cc3)cc2)[nH]1)C(C)C (some centres unmarked) [AA_276] | 1 to 10 nM |  | 10 to 100 nM
